The record followed here is patent US20190062305A1, “PYRIDYL OR PYRAZINYL COMPOUNDS CARRYING A METHYL-BOUND ALPHA-AMINO ACID AMIDE GROUP” (ABBVIE DEUTSCHLAND GMBH & CO. KG, priority 2015, published 2019).

pEC50: −log10 of the molar value. Counter-ions that a name gives are not always drawn. Like-named read-outs stand apart in the source and are kept apart here. Where only a bound is given, the exact number is not on record here.

Data set [1] in a line: Metabolic stability in human liver microsomes, unbound intrinsic clearance (Cl int/fu mic). The format is in vitro ADME. To be noted: pH 7.4, human liver microsomes 0.25 mg/mL, 0.5 μM compound, NADPH, read-out: Cl int, mic unb. (h) [l/h/kg] (unbound intrinsic clearance, human). The procedure, abridged: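 Unbound intrinsic clearance is CLint divided by fu mic, with the unbound fraction measured by 4 h HTDialysis at 37 °C of 0.25 mg/ml microsomes spiked with 0.5 µM compound. For CLint, 0.5 µM compound was incubated with 0.25 mg/mL human microsomes and 1.0 mM NADPH (pH 7.4, 37 °C). Substrate loss over 30 min was measured by LC-MS/MS and t1/2 assumed first-order kinetics.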
(Liver microsomes are a subcellular fraction often used to study metabolism.)

Data set [2] has as its target T1, 5-HT2C receptor (Homo sapiens, UniProt P28335).
T1 construct: host or cells: U2OS
Put plainly: Human 5-HT2C functional assay (beta-arrestin2 recruitment, U2OS_HTR2C_β-Arrestin cells). The following applies: for pEC50: beta-arrestin2 recruitment, U2OS_HTR2C_β-Arrestin cells, 1.5 h incubation, read-out: EC50 5-HT2C (potency in functional assay); for Emax: relative efficacy vs response to 10 μM 5-HT or maximal 5-HT effect (100%). The format is cell-based. The procedure, abridged: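 EC50 and relative efficacy came from 4-parameter variable-slope fits, normalised to 10 µM 5-HT or maximal 5-HT response (100%). Luminescent β-galactosidase enzyme-complementation signal was read after 1.5 h compound exposure in U2OS_HTR2C_β-Arrestin cells held in 1% serum medium from the prior day.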
A general note: Arrestin recruitment assays detect the binding of arrestin to an activated receptor.

T1 sequence (P28335 33-458): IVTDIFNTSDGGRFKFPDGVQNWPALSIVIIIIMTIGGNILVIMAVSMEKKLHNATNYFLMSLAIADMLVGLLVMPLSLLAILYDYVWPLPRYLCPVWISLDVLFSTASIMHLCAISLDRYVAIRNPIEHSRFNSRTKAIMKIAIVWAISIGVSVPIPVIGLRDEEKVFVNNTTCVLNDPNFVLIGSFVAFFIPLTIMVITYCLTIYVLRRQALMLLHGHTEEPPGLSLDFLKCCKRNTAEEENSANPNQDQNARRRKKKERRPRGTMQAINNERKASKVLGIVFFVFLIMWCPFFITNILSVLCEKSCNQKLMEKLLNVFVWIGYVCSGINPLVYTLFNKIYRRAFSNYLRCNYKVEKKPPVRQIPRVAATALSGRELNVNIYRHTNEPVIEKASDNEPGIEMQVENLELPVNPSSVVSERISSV
T1 sequence (P32121 whole entry partner): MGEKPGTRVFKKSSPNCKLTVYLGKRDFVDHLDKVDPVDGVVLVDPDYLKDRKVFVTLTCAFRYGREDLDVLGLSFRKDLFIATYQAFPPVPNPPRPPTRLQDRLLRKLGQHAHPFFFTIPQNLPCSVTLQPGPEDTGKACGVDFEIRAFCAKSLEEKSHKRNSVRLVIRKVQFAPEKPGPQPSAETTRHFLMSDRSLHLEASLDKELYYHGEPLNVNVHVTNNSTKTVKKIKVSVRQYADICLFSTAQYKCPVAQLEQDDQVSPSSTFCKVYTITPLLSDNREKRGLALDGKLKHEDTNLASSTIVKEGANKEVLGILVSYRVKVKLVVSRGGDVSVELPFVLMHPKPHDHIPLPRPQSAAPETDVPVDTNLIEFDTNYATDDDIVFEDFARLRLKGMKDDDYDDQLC

As a reminder, the pEC50 is the negative decadic logarithm of the EC50, by convention in mol/L. For orientation: Emax means the maximal effect, on the per cent scale that the assay sets. Turning to `COc1nc(OCC2CC(F)(F)C2(F)F)c(F)cc1CN(C)C(=O)[C@@H]1CCCN1C` (stereo partly drawn) [Example 103, (2S)—N-[[5-Fluoro-2-methoxy-6-[(2,2,3,3-tetrafluorocyclobutyl)methoxy]-3-pyridyl]methyl]-N,1-dimethyl-pyrrolidine-2-carboxamide Hydrochloride], the CLint scaled at 0.5 μM in data set [1] (human, liver microsomes) was less than 5 L/h/kg. Moreover, in data set [2], the pEC50 is 6.70 to 7.70 and the Emax fell in the range of 50 to 70%.
In the same order, the values of `COc1nc(OC2CC(OC)C2)c(F)cc1CNC(=O)[C@@H]1CCCN1` (stereo partly drawn) [Example 104, (2S)—N-[[5-Fluoro-2-methoxy-6-(3-methoxycyclobutoxy)-3-pyridyl]methyl]-pyrrolidine-2-carboxamide Hydrochloride] are less than 5 L/h/kg, greater than 7.70 and greater than 70%.
On to `COc1nc(OC2CC(C(F)(F)F)C2)c(F)cc1CNC(=O)[C@@H]1CCCN1` (stereo partly drawn) [Example 105, (2S)—N-[[5-Fluoro-2-methoxy-6-[3-(trifluoromethyl)cyclobutoxy]-3-pyridyl]-methyl]pyrrolidine-2-carboxamide Hydrochloride], for which the CLint scaled at 0.5 μM in data set [1] (human, liver microsomes) lay within 5 to 50 L/h/kg. Further, in data set [2], the pEC50 is greater than 7.70 and the maximal effect (Emax) was greater than 70%.
As to `COc1nc(OCC2CC(F)(F)C2)c(F)cc1CN(C)C(=O)[C@@H]1CCCN1C` [Example 106, (2S)—N-[[6-[(3,3-Difluorocyclobutyl)methoxy]-5-fluoro-2-methoxy-3-pyridyl]-methyl]-N,1-dimethyl-pyrrolidine-2-carboxamide Hydrochloride], the CLint scaled at 0.5 μM in data set [1] (human, liver microsomes) is less than 5 L/h/kg. In data set [2], the negative logarithm of the EC50 (pEC50) was 6.70 to 7.70 and the Emax is 30 to 50%.
For `COc1nc(OC2CC(F)(F)C2)cnc1CNC(=O)[C@@H]1CCCN1` [Example 107, (2S)—N-[[5-(3,3-Difluorocyclobutoxy)-3-methoxy-pyrazin-2-yl]methyl]pyrrolidine-2-carboxamide; 2,2,2-trifluoroacetic Acid], the CLint scaled at 0.5 μM in data set [1] (human, liver microsomes) is less than 5 L/h/kg. In data set [2], the pEC50 is 6.00 to 6.70 and the maximal effect (Emax) was greater than 70%.
Take `COc1nc(OC2CCC(F)(F)CC2)cnc1CNC(=O)[C@@H]1CCCN1` [Example 108, (2S)—N-[[5-(4,4-Difluorocyclohexoxy)-3-methoxy-pyrazin-2-yl]methyl]pyrrolidine-2-carboxamide; 2,2,2-trifluoroacetic Acid]: the CLint scaled at 0.5 μM in data set [1] (human, liver microsomes) is less than 5 L/h/kg. In addition, in data set [2], the pEC50 was 6.70 to 7.70 and the Emax was greater than 70%.
Regarding `COc1nc(OCC(C)(C(F)(F)F)C(F)(F)F)c(F)cc1CNC(=O)[C@@H]1CCCN1` [Example 109, (2S)—N-[[5-Fluoro-2-methoxy-6-[3,3,3-trifluoro-2-methyl-2-(trifluoromethyl)propoxy]-3-pyridyl]methyl]pyrrolidine-2-carboxamide Hydrochloride], in data set [1] (human, liver microsomes), the CLint scaled at 0.5 μM was 50 to 500 L/h/kg. In addition, in data set [2], the negative logarithm of the EC50 (pEC50) is greater than 7.70 and the Emax is greater than 70%.
For the compound `COc1nc(OCC(F)(F)C(F)(F)C(F)(F)F)c(F)cc1CNC(=O)[C@@H]1CCCN1` [Example 110, (2S)—N-[[5-Fluoro-6-(2,2,3,3,4,4,4-heptafluorobutoxy)-2-methoxy-3-pyridyl]-methyl]pyrrolidine-2-carboxamide Hydrochloride], the CLint scaled at 0.5 μM in data set [1] was in the range of 5 to 50 L/h/kg. Also, in data set [2], the negative-log EC50 (pEC50) is greater than 7.70 and the Emax was greater than 70%.
Take `COc1nc(OC(C(F)(F)F)C(F)(F)F)c(F)cc1CNC(=O)[C@@H]1CCCN1` [Example 111, (2S)—N-[[5-Fluoro-2-methoxy-6-[2,2,2-trifluoro-1-(trifluoromethyl)ethoxy]-3-pyridyl]methyl]pyrrolidine-2-carboxamide Hydrochloride]: in data set [1] (human, liver microsomes), the CLint scaled at 0.5 μM lay within 5 to 50 L/h/kg. Besides, in data set [2], the negative-log EC50 (pEC50) was greater than 7.70 and the maximum response (Emax) was greater than 70%.
